≈ marks a conversion by molar mass, not a printed value. Like-named read-outs stand apart in the source and are kept apart here.
How the values were obtained:
CCR5 = CCR5 (Homo sapiens (Human), UniProt P51681); experiment: Calcium flux inhibition experiment; type: cell-based; conditions: for IC50: HEK293/CCR5-Gα16 cell line, calcium flux, read-out: CCR5 IC50; for calcium influx inhibition effect in words, versus positive control compounds: conclusion from Table 1
[1] = Cytotoxicity (CC50) in TZM-bl cells; type: cell-based; conditions: human
HIV-1SF162 virus strain = experiment: Inhibition activity on TZM-bl cells infected with HIV-1SF162; conditions: for EC50: Human immunodeficiency virus 1, TZM-bl; for therapeutic index (TI): TZM-bl cells infected with HIV-1SF162
[2] = TZM-bl cells (Table 3), read-out: CC50

CCR5, sequence (P51681 whole entry): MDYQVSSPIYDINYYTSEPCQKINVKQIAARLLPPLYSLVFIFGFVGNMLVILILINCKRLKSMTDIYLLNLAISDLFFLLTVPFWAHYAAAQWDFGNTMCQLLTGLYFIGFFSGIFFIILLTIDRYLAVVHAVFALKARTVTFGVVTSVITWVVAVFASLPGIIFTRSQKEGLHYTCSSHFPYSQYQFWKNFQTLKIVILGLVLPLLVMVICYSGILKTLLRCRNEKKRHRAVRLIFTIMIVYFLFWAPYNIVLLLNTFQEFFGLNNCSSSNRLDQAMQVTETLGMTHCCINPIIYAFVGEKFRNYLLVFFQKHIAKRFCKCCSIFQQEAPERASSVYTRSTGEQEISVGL

Structure (SMILES) | IC50 (CCR5) [nM] | calcium influx inhibition effect in words, versus positive control compounds (CCR5) | CC50 [1] [µg/mL] | EC50 (HIV-1SF162 virus strain) [µg/mL] | therapeutic index (TI) (HIV-1SF162 virus strain) | CC50 [1, 2] [µg/mL]
Cc1nnc(C(C)C)n1C1CC2CCC(C1)N2CC[C@H](NC(=O)C1CCCCC1)c1ccc(F)s1 (stereo partly drawn) [Compound 38, N-[(1S)-3-[exo-3-(3-isopropyl-5-methyl-4H-1,2,4-triazol-4-yl)-8-azabicyclo[3.2.1]octane-8-yl]-1-(5-fluorothiophen-2-yl)propyl]cyclohexane-1-carboxamide] | 9.33 | comparable to the positive control compounds | > 200 | 2.61 (≈ 5.2 µM) | >73.64 | –
CCCC(=O)N1CCc2c(nc(C)n2C2CC3CCC(C2)N3CC[C@H](NC(C)=O)c2ccc(Cl)s2)C1 (stereo partly drawn) [Compound 128, N-{(1S)-3-[(3-endo)-3-(5-n-butyryl-2-methyl-4,5,6,7-tetrahydro-1H-imidazo[4,5-c]pyridin-1-yl)-8-azabicyclo[3.2.1]octane-8-yl]-1-(5-chlorothiophen-2-yl)-propyl}acetamide] | 17.5 | – | > 200 | 0.174 (≈ 0.327 µM) | >1150.82 | –
CC(=O)N[C@@H](CCN1C2CCC1CC(n1c(C)nc3c1CCN(C(=O)C1CC1)C3)C2)c1nccs1 (stereo partly drawn) [Compound 122, N-{(1S)-3-[(3-endo)-3-(5-cyclopropionyl-2-methyl-4,5,6,7-tetrahydro-1H-imidazo[4,5-c]pyridin-1-yl)-8-azabicyclo[3.2.1]octane-8-yl]-1-(thiazol-2-yl)-propyl}acetamide] | 24.5 | – | > 200 | 0.69 (≈ 1.39 µM) | >290.06 | –
CC(=O)N[C@@H](CCN1C2CCC1CC(n1c(C)nc3c1CCN(C(=O)C(C)C)C3)C2)c1nccs1 (stereo partly drawn) [Compound 121, N-{(1S)-3-[(3-endo)-3-(5-isobutyryl-2-methyl-4,5,6,7-tetrahydro-1H-imidazo[4,5-c]pyridin-1-yl)-8-azabicyclo[3.2.1]octane-8-yl]-1-(thiazol-2-yl)-propyl}acetamide] | 32.3 | – | > 200 | 0.328 (≈ 0.658 µM) | >386.37 | –
CCCC(=O)N1CCc2c(nc(C)n2C2CC3CCC(C2)N3CC[C@H](NC(C)=O)c2ccc(F)s2)C1 (stereo partly drawn) [Compound 136, N-{(1S)-3-[(3-endo)-3-(5-n-butyryl-2-methyl-4,5,6,7-tetrahydro-1H-imidazo[4,5-c]pyridin-1-yl)-8-azabicyclo[3.2.1]octane-8-yl]-1-(5-fluorothiophen-2-yl)-propyl}acetamide] | 22.1 | – | – | 0.011 (≈ 0.0213 µM) | >4834.51 | > 200
CC(=O)N[C@@H](CCN1C2CCC1CC(n1c(C)nc3c1CCN(C(=O)C(C)C)C3)C2)c1ccc(Cl)s1 (stereo partly drawn) [Compound 129, N-{(1S)-3-[(3-endo)-3-(5-isobutyryl-2-methyl-4,5,6,7-tetrahydro-1H-imidazo[4,5-c]pyridin-1-yl)-8-azabicyclo[3.2.1]octane-8-yl]-1-(5-chlorothiophen-2-yl)-propyl}acetamide] | 14.2 | – | > 200 | 0.072 (≈ 0.135 µM) | >1526.72 | –
CC(=O)N[C@@H](CCN1C2CCC1CC(n1c(C)nc3c1CCN(C(=O)C(C)C)C3)C2)c1ccc(F)s1 (stereo partly drawn) [Compound 135, N-{(1S)-3-[(3-endo)-3-(5-isobutyryl-2-methyl-4,5,6,7-tetrahydro-1H-imidazo[4,5-c]pyridin-1-yl)-8-azabicyclo[3.2.1]octane-8-yl]-1-(5-fluorothiophen-2-yl)-propyl}acetamide] | 8.28 | comparable to the positive control compounds | > 200 | 0.155 (≈ 0.301 µM) | >1222.11 | –
CCC(=O)N1CCc2c(nc(C)n2C2CC3CCC(C2)N3CC[C@H](NC(C)=O)c2ccc(F)s2)C1 (stereo partly drawn) [Compound 134, N-{(1S)-3-[(3-endo)-3-(5-propionyl-2-methyl-4,5,6,7-tetrahydro-1H-imidazo[4,5-c]pyridin-1-yl)-8-azabicyclo[3.2.1]octane-8-yl]-1-(5-fluorothiophen-2-yl)-propyl}acetamide] | 22.1 | – | > 200 | 0.113 (≈ 0.225 µM) | >1772.41 | –
COC(=O)N1CCc2c(nc(C)n2C2CC3CCC(C2)N3CC[C@H](NC(C)=O)c2nccs2)C1 (stereo partly drawn) [Compound 119, Methyl 1-{(endo)-8-[(S)-3-acetamido-3-(thiazol-2-yl)-propyl]-8-azabicyclo[3.2.1]octan-3-yl}-2-methyl-1,4,6,7-tetrahydro-5H-imidazo[4,5-c]pyridine-5-carboxylate] | 4.77 | better than the positive control compounds | > 200 | 0.738 (≈ 1.52 µM) | >270.84 | –
CC(=O)N[C@@H](CCN1C2CCC1CC(n1c(C)nc3c1CCN(C(=O)C1CC1)C3)C2)c1ccc(F)s1 (stereo partly drawn) [Compound 132, N-{(1S)-3-[(3-endo)-3-(5-cyclopropionyl-2-methyl-4,5,6,7-tetrahydro-1H-imidazo[4,5-c]pyridin-1-yl)-8-azabicyclo[3.2.1]octane-8-yl]-1-(5-fluorothiophen-2-yl)-propyl}acetamide] | 22.2 | – | – | 0.097 (≈ 0.189 µM) | >2063.25 | > 200
CC(=O)N[C@@H](CCN1C2CCC1CC(n1c(C)nc3c1CCN(C(C)=O)C3)C2)c1nccs1 (stereo partly drawn) [Compound 118, N-{(1S)-3-[(3-endo)-3-(5-acetyl-2-methyl-4,5,6,7-tetrahydro-1H-imidazo[4,5-c]pyridin-1-yl)-8-azabicyclo[3.2.1]octane-8-yl]-1-(thiazol-2-yl)-propyl}acetamide] | 16.9 | – | – | 0.669 (≈ 1.42 µM) | >168.03 | > 200
Cc1nnc(C(C)C)n1C1CC2CCC(C1)N2CC[C@H](NC(=O)C1CCCCC1)c1ccc(F)nc1 (some centres unmarked) [Compound 35] | 270 | – | > 200 | > 40 | – | –
CCC(=O)N1CCc2c(nc(C)n2C2CC3CCC(C2)N3CC[C@H](NC(C)=O)c2ccc(Cl)s2)C1 (stereo partly drawn) [Compound 127, N-{(1S)-3-[(3-endo)-3-(5-propionyl-2-methyl-4,5,6,7-tetrahydro-1H-imidazo[4,5-c]pyridin-1-yl)-8-azabicyclo[3.2.1]octane-8-yl]-1-(5-chlorothiophen-2-yl)-propyl}acetamide] | 22.9 | – | – | 0.145 (≈ 0.28 µM) | >1379.94 | > 200
Cc1ccc([C@H](CCN2C3CCC2CC(n2c(C)nnc2C(C)C)C3)NC(=O)Cc2ccc(F)cc2)s1 (stereo partly drawn) [Compound 33, 4-fluoro-N-[(1S)-3-[exo-3-(3-isopropyl-5-methyl-4H-1,2,4-triazol-4-yl)-8-azabicyclo[3.2.1]octane-8-yl]-1-(5-methylthiophen-2-yl)propyl]phenylacetamide] | 25 | – | > 200 | 0.147 (≈ 0.281 µM) | >328.95 | –
COC(=O)N1CCc2c(nc(C)n2C2CC3CCC(C2)N3CC[C@H](NC(C)=O)c2ccc(Cl)s2)C1 (stereo partly drawn) [Compound 126, Methyl 1-{(endo)-8-[(S)-3-acetamido-3-(5-chlorothiophen-2-yl)-propyl]-8-azabicyclo[3.2.1]octan-3-yl}-2-methyl-1,4,6,7-tetrahydro-5H-imidazo[4,5-c]pyridine-5-carboxylate] | 22 | – | > 200 | 0.091 (≈ 0.175 µM) | >2207.68 | –
Cc1nnc(C(C)C)n1C1CC2CCC(C1)N2CC[C@H](NC(=O)C1CCCC1)c1ccc(F)nc1 (some centres unmarked) [Compound 36] | 31.8 | – | – | > 40 | – | > 200
Cc1ccc([C@H](CCN2C3CCC2CC(n2c(C)nnc2C(C)C)C3)NC(=O)C2CCCC2)s1 (stereo partly drawn) [Compound 31, N-[(1S)-3-[exo-3-(3-isopropyl-5-methyl-4H-1,2,4-triazol-4-yl)-8-azabicyclo[3.2.1]octane-8-yl]-1-(5-methylthiophen-2-yl)propyl]cyclopentane-1-carboxamide] | 9.76 | comparable to the positive control compounds | > 200 | 0.033 (≈ 0.0682 µM) | >5714.29 | –
Cc1nnc(C(C)C)n1C1CC2CCC(C1)N2CC[C@H](NC(=O)C1CCCC1)c1ccc(F)s1 (stereo partly drawn) [Compound 39, N-[(1S)-3-[exo-3-(3-isopropyl-5-methyl-4H-1,2,4-triazol-4-yl)-8-azabicyclo[3.2.1]octane-8-yl]-1-(5-fluorothiophen-2-yl)propyl]cyclopentane-1-carboxamide] | 1.41 | better than the positive control compounds | – | 1.02 (≈ 2.09 µM) | >196.08 | > 200
CC(=O)N[C@@H](CCN1C2CCC1CC(n1c(C)nc3c1CCN(C(C)=O)C3)C2)c1ccc(Cl)s1 (stereo partly drawn) [Compound 125, N-{(1S)-3-[(3-endo)-3-(5-acetyl-2-methyl-4,5,6,7-tetrahydro-1H-imidazo[4,5-c]pyridin-1-yl)-8-azabicyclo[3.2.1]octane-8-yl]-1-(5-chlorothiophen-2-yl)-propyl}acetamide] | 12.2 | – | > 200 | 0.286 (≈ 0.567 µM) | >699.27 | –
Cc1ccc([C@H](CCN2C3CCC2CC(n2c(C)nnc2C(C)C)C3)NC(=O)C2CCCCC2)s1 (stereo partly drawn) [Compound 30, N-[(1S)-3-[exo-3-(3-isopropyl-5-methyl-4H-1,2,4-triazol-4-yl)-8-azabicyclo[3.2.1]octane-8-yl]-1-(5-methylthiophen-2-yl)propyl]cyclohexane-1-carboxamide] | 24 | – | > 200 | 0.06 (≈ 0.121 µM) | >2150.54 | –

Source: patent US10167299B2, “1-(3-aminopropyl) substituted cyclic amine compounds, preparation method therefor, and pharmaceutical compositions and uses thereof” (SHANGHAI INSTITUTE OF MATERIA MEDICA, CHINESE ACADEMY OF …, priority 2013, dated 2019)
